Laboratory results: article PMC8370201, “Amaryllidaceae Alkaloid Cherylline Inhibits the Replication of Dengue and Zika Viruses” (Antimicrobial Agents and Chemotherapy, 2021)
“Also recorded” adds a separate entry of the source. Read-outs that look alike come from different tables or passages of the source.

Legend:
[1] = system: ZIKV H/PF/2013; experiment: Plaque assay, infectious titers of WT ZIKV H/PF/2013 from Huh7.5 cells; type: cell-based, Zika virus (ZIKV); details: treated 2 hpi, supernatant 48 h later
[2] = system: ZIKVR2A; details: for SI ZIKVR2A (therapeutic selectivity index): CC50/EC50, Huh7.5
[3] = system: DENVGFP; experiment: Time-of-drug-addition and -removal assays, DENVGFP in Huh7 cells; type: cell-based, dengue virus (DENV); details: for infection after removal of compound 2 hpi vs continuous treatment: Huh7, treated 2 h prior to infection, removed 2 hpi, microscopy; for time of drug addition: effect on DENVGFP-infected Huh7 cells 72 hpi / time of drug removal: inhibition of DENVGFP replication: cherylline 50 μM
Description: For the time-of-drug-addition assay, at the time of infection, AAs were added in wells corresponding to 0 h. At 2 hpi, viral inoculum was removed from every well, and AAs were added back to wells corresponding to 0 h and 2 h. At 4, 7, 12, and 24 hpi, AAs or DMSO diluted in DMEM was added to the appropriate wells. After 72 h, cells were trypsinized and fixed in 4% formaldehyde to measure the percentage of infected cells on an FC500 MPL cytometer. Alternatively, pictures of Hoechst 33342-stained cells were acquired on an Axio Observer microscope. All assays were performed in triplicate.
At 2 hpi, plates were washed, and medium was replaced to remove remaining viruses in the supernatant. AAs were added back to all wells, except the ones corresponding to 2 h of treatment, in which fresh medium exclusive of any AA was added. Accordingly, after 4, 7, and 12 h of infection, the supernatant was replaced by fresh medium in corresponding wells. After 72 h of incubation, results were acquired as for the time-of-drug-addition assay. All assays were performed in triplicate.

[4] = Cell viability (ATP, Cell-Titer GLO) in Huh7.5 cells; type: cell-based; details: human
Description: Where indicated for Huh7.5 and Vero E6 cells and PBMCs, cell viability was measured by monitoring of cellular ATP levels using the Cell-Titer GLO assay kit (Promega). Briefly, 10× 10^3 to 20 × 10^3 cells in 50 to 100 μl were seeded in 48-well or 96-well plates and cultured overnight. AAs were added at the designated concentrations for 24 or 48 h, as specified in the text. Then, 50 to 100 μl of room temperature Cell-Titer GLO reagent was added in each well to room temperature-equilibrated cell plates. Plates were rocked for 2 min and rested for 10 min, and the luminescence signal was measured using a microplate spectrophotometer (Biotek Synergy H1 or Tecan Spark multimode microplate reader). Viability was expressed as a fold change calculated using the value of DMSO-treated cells at each concentration; for each AA and CC50, values were determined.

[5] = system: DENV2 16881s; experiment: Plaque assay, infectious titers of WT DENV2 16881s from Huh7.5 cells; type: cell-based, dengue virus (DENV); details: treated 2 hpi, supernatant 48 h later; for production of DENV infectious particles (words): AAs 50 μM
Description: Huh7.5 cells were infected with DENV 16881s, ZIKV H/PF/2013, or ZIKV MR766 (MOI, 0.1) or left uninfected. […] Supernatants were harvested 2 days pi, and PFU were determined by plaque assay on VeroE6 cells. Cells incubated overnight (2 × 10^5 cells/well in 24-well plates) were infected with 10-fold serially diluted virus-containing supernatants for 2 h at 37°C. Inoculum was then replaced with MEM (Life Technologies) containing 1.5% carboxymethylcellulose (Millipore-Sigma). ZIKV- and DENV-infected cells were incubated for 5 and 7 days, respectively. One volume of 10% formaldehyde was added to the cells for fixation. Two hours later, cells were washed with tap water and stained with a 1% crystal violet/10% ethanol solution for 30 min. Wells were rinsed with tap water, and the number of plaques were counted to calculate virus titers.

[6] = system: ZIKVR2A; experiment: microbe, parasite or virus in culture; details: Zika virus, Huh7.5, read-out: EC50 (μM) for ZIKVR2A, Huh7.5 cells, luciferase at 48 hpi
[7] = system: DENVR2A; details: CC50/EC50, Huh7.5
[8] = system: ZIKV MR766; experiment: Plaque assay, infectious titers of WT ZIKV MR766 from Huh7.5 cells; type: cell-based, Zika virus (ZIKV); details: treated 2 hpi, supernatant 48 h later
[9] = system: DENVR2A; experiment: microbe, parasite or virus in culture; details: Dengue virus, Huh7.5, read-out: EC50 (μM) for DENVR2A
[10] = system: DENVGFP; experiment: DENVGFP reporter virus infection of Huh7 cells (flow cytometry / microscopy); details: for anti-DENV activity in screening (GFP microscopy, words): Huh7, treated 2 h before DENVGFP MOI 0.15, 72 hpi, at the chosen concentration; for EC50: Dengue virus, Huh-7, read-out: EC50, DENVGFP infection; for DENVGFP infected cells by microscopy: MOI 0.15, 72 hpi
[11] = system: Huh7 cells; experiment: XTT cytotoxicity assay in Huh7 cells; type: cell-based, human; details: 0.4 to 400 μM, 72 hours
Description: Cytotoxicity properties were titrated by metabolism monitoring using the XTT [2,3-bis-(2-methoxy-4-nitro-5-sulfophenyl)-2H-tetrazolium-5-carboxanilide] assay kit (Roche, Millipore Sigma), as described before ([24]). Briefly, Huh7 cells were seeded at 10 × 10^3 cells per well in 96-well plates. […] After 72 h of incubation, medium was replaced by phenol-free DMEM (Wisent) containing 0.3 mg/ml XTT, and cells were incubated for 4 h. Absorbance was measured at 450nm using a microplate spectrophotometer (Synergy H1, Biotek). Treatment conditions with 0.5% DMSO were used as the reference control. The percentage of cell viability was calculated at each concentration.

[12] = system: DENVGFP; experiment: DENVGFP infection of PBMCs with antibody-dependent enhancement (flow cytometry); details: 30 μM
[13] = system: DENVGFP and DENV2 16881s; experiment: Viral RNA levels by RT-qPCR, DENV; type: cell-based, dengue virus (DENV); details: 12 and 24 h; DENVGFP MOI 0.5 Huh7 25 μM; DENV2 16881s MOI 2 Huh7.5 50 μM
[14] = system: VSV-G pseudotyped HIV-1GFP; type: cell-based
[15] = system: ZIKV H/PF/2013; experiment: Viral RNA levels by RT-qPCR, ZIKV; type: cell-based, Zika virus (ZIKV); details: 12 and 24 h; MOI 2, Huh7.5, 50 μM
[16] = system: interferon-sensitive response element (ISRE) transcription; experiment: Type I IFN activation assay (ISRE-luciferase) in LL171 cells; type: cell-based, Murine; details: 50 μM, 24 h
Description: In vitro type I IFN activation was measured in LL171 cells using the luciferase assay system kit (Promega). Briefly, 200 μl LL171 reporter cells (L929 cells expressing an IFN stimulated response element [ISRE]-luciferase) were seeded at 1.5 × 10^4 cells/well in 96-well plates and cultured for 16 h. Medium was replaced with DMEM containing cherylline for 24 h. Supernatant was removed, cells were rinsed with PBS, and lysis buffer was added (luciferase assay reagent; Promega). Then, cells were scraped and transferred into opaque 96-well plates. LAR (luciferase assay reagent; Promega) was added to each well, and luminescence was measured at 480 nm using a microplate spectrophotometer (Synergy H1). 5,6-dimethylxanthenone-4-acetic acid (DMXAA, 20 μg/ml) was used as a positive control. All assays were performed in triplicate.

Structure (SMILES): COc1ccc([C@@H]2CN(C)Cc3cc(O)c(OC)cc32)cc1O [Gigantellinine, gigantellinine]
- production of ZIKV H/PF/2013 infectious particles (words) [1]: little effect
- production of ZIKV H/PF/2013 infectious particles (words) ([1]; listed as gigantellinine): marginal effects on ZIKV production
- ZIKVR2A replication ([2]; Huh7.5 cells): did not significantly impact ZIKVR2A replication
- infection after removal of compound 2 hpi vs continuous treatment [3]: restored virus replication completely
- CC50 at 48 h [4]: > 250 µM
- production of DENV infectious particles (words) [5]: little effect
- production of DENV infectious particles (words) ([5]; listed as gigantellinine): no effects on DENV production
- EC50 [6]: > 250 µM
- SI DENVR2A (therapeutic selectivity index) [7]: >2.3
- production of ZIKV MR766 infectious particles (words) [8]: little effect
- production of ZIKV MR766 infectious particles (words) ([8]; listed as gigantellinine): marginal effects on ZIKV production
- EC50 [9]: 105 µM
- anti-DENV activity in screening (GFP microscopy, words) [10]: moderate

Structure (SMILES): O=c1c2cc3c(cc2c2cccc4ccn1c42)OCO3 [Hippadine, hippadine]
- decrease in ZIKV H/PF/2013 viral titer ([1]; AAs 50 μM): 3 fold
- decrease in ZIKV H/PF/2013 viral titers ([1]; AAs 50 μM): 70%
- cytotoxic activity of AAs [11]: cytotoxic
- SI ZIKVR2A (therapeutic selectivity index) [2]: 1.54
- ZIKVR2A replication ([2]; Huh7.5 cells): did not significantly impact ZIKVR2A replication
- infection after removal of compound 2 hpi vs continuous treatment [3]: restored virus replication completely
- CC50 at 48 h ([4]; Huh7.5 cells, Huh7.5, ATP, 48 h posttreatment, read-out: CC50): 176 µM
- production of DENV infectious particles (words) [5]: little effect
- production of DENV infectious particles (words) ([5]; listed as hippadine): no effects on DENV production
- EC50 [6]: 114 µM
- SI DENVR2A (therapeutic selectivity index) [7]: 2.38
- production of ZIKV MR766 infectious particles (words) [8]: little effect
- EC50 [9]: 73.8 µM
- anti-DENV activity in screening (GFP microscopy, words) [10]: moderate

Structure (SMILES): COc1cc2c(cc1O)CN(C)C[C@H]2c1ccc(O)cc1 [Cherylline, cherylline]
- decrease in ZIKV H/PF/2013 viral titer ([1]; AAs 50 μM): 100 fold
- cytotoxic activity of AAs [11]: cytotoxic
- median GFP+ cells ([12]; MOI 2, 72 hpi): 0.1%
- decrease in the percentage of GFP+ cells ([12]; MOI 2, 72 h): 5.3 fold
- SI ZIKVR2A (therapeutic selectivity index) [2]: >12.3
- EC50 ([2]; read-out: EC50 (μM) for ZIKVR2A, Huh7.5 cells, luciferase at 48 hpi): 20.3 µM
- infection after removal of compound 2 hpi vs continuous treatment [3]: restored virus replication completely
- time of drug addition: effect on DENVGFP-infected Huh7 cells 72 hpi ([3]; added at 24 hpi, NITD008 10 μM): lost one-third of its inhibitory potential
- time of drug addition: effect on DENVGFP-infected Huh7 cells 72 hpi ([3]; added at 12 hpi): some cherylline antiviral activity was lost
- time of drug addition: effect on DENVGFP-infected Huh7 cells 72 hpi ([3]; added between 0 and 7 hpi): entirely blocked viral replication
- time of drug removal: inhibition of DENVGFP replication ([3]; present for the first 12 h): successfully impaired DENV replication
- time of drug removal: inhibition of DENVGFP replication ([3]; removed at 2, 4, or 7 hpi): inhibition of viral replication was lost
- viral RNA levels (RT-qPCR) [13]: decrease in viral RNA levels
- CC50 at 48 h [4]: > 250 µM
- decrease in DENV 16881s viral titers ([5]; 50 μM): 17 fold
- HIV-1 infection [14]: no effect; also recorded: did not affect HIV-1 infection; also recorded: did not detect any antiretroviral activity
- EC50 [6]: 20.3 µM
- SI DENVR2A (therapeutic selectivity index) [7]: >28
- decrease in WT ZIKV MR766 replication ([8]; AAs 50 μM): 8 fold
- decrease in ZIKV MR766 viral titer ([8]; AAs 50 μM): 88%
- viral RNA levels (RT-qPCR) [15]: decrease in viral RNA levels
- type I interferon (IFN) induction, ISRE transcription [16]: did not trigger a significant amount of type I interferon
- EC50 [9]: 8.8 µM
- EC50 [10]: 8 µM
- DENVGFP infected cells by microscopy ([10]; Huh7, 0.4 μM): no apparent difference with the control
- DENVGFP infected cells by microscopy ([10]; Huh7, 2 μM): most of the cells were infected
- DENVGFP infected cells by microscopy ([10]; Huh7, 10 μM): Several foci of infected cells became visible
- DENVGFP infected cells by microscopy ([10]; Huh7, 50 μM): no detectable infection; also recorded: no infected cells were observed

Structure (SMILES): O[C@H]1C=C[C@@]23CCN(Cc4cc5c(cc42)OCO5)[C@@H]3C1 [Crinine, crinine]
- infection after removal of compound 2 hpi vs continuous treatment [3]: restored virus replication completely

Structure (SMILES): NC(=O)c1ncn([C@@H]2O[C@H](CO)[C@@H](O)[C@H]2O)n1 [ribavirin, reference compound]
- EC50 [10]: 100 µM

Structure (SMILES): CN1CC[C@@]23C=C[C@H](O)C[C@@H]2Oc2c(O)ccc(c23)C1 [Sanguinine, sanguinine]
- infection after removal of compound 2 hpi vs continuous treatment [3]: restored virus replication completely
- anti-DENV activity in screening (GFP microscopy, words) [10]: very weak

Structure (SMILES): OC1CC2N3CCC2(c2cc4c(cc2C3)OCO4)C2OC12 (centres unmarked) [Flexinine, flexinine]
- production of ZIKV H/PF/2013 infectious particles (words) [1]: marginal effects on ZIKV production; also recorded: little effect
- SI ZIKVR2A (therapeutic selectivity index) [2]: >1.15
- ZIKVR2A replication ([2]; Huh7.5 cells): did not significantly impact ZIKVR2A replication
- infection after removal of compound 2 hpi vs continuous treatment [3]: restored virus replication completely
- CC50 at 48 h [4]: > 250 µM
- production of DENV infectious particles (words) [5]: no effects on DENV production; also recorded: little effect
- EC50 [6]: 216 µM
- SI DENVR2A (therapeutic selectivity index) [7]: >3.9
- production of ZIKV MR766 infectious particles (words) [8]: marginal effects on ZIKV production; also recorded: little effect
- EC50 [9]: 63.4 µM
- anti-DENV activity in screening (GFP microscopy, words) [10]: moderate

Structure (SMILES): COc1cc2c(cc1OC)[C@@H](c1ccc(O)cc1)CN(C)C2 [Gigantelline, gigantelline]
- anti-DENV activity in screening (GFP microscopy, words) [10]: weak
